Each structure is given as a SMILES string.

This data set in a line: gradient 5% acetonitrile 3 min, to 50% in 2 min, to 85% in 15 min, held 3 min, 100 µL/min. The following applies: column: Zorbax Extend-C18 2.1 x 50 mm; eluents: water / acetonitrile, 0.1% formic acid. The essentials:
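Over 3 months, pure standards in mixtures of ~100 molecules were run by HPLC coupled to a quadrupole time-of-flight mass spectrometer in positive and negative ionization mode. The column was a Zorbax Extend-C18 (2.1 × 50 mm, 1.8 μm) at 100 μL/min, eluted with water and acetonitrile each holding 0.1% formic acid, with 40 μL dead and 900 μL dwell volumes. Retention time was determined from adduct peaks chosen by software and checked manually.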
`O=C(Nc1cnc(-c2cccnc2)nc1)C1CCC1` came in with an RP-LC retention time of 659 s.

For `O=C(c1cc2c(s1)-c1ccccc1S(=O)(=O)C2)N1CCN(c2ccccn2)CC1`, the RP-LC retention time was found to be 605 s.

In turn, `O=C(Cc1nnc(-c2ccc3ncccc3c2)o1)N1CCN(c2ccccc2)CC1` gave an RP-LC retention time of 716 s.

As to `COCCN1C(=O)c2cccn2CC1CNC(=O)Cc1c(C)noc1C` (configuration not stated), the RP-LC retention time amounted to 610 s.

For the compound `Cc1ccc(-c2cn3c(CC(=O)NCc4ccc(Cl)cc4)csc3n2)cc1C`, the RP-LC retention time worked out at 892 s.

On to `O=C(Nc1ccccc1F)N1CCC(n2cnc3ccccc3c2=O)CC1`, for which the RP-LC retention time came out at 712 s.

Regarding `COc1ccc(-c2noc(-c3nc(Cc4ccccc4)no3)n2)cc1`, the RP-LC retention time came to 1170 s.

Compound `Cc1ccccc1Nc1c(-c2cccc(O)c2)nc2cnccn12` had an RP-LC retention time of 744 s.

The compound `Cc1ccc(NC(=O)Cn2c(=O)cc(-c3nc(C(C)C)no3)c3ccccc32)cc1F` showed an RP-LC retention time of 1080 s.

Compound `CN1CC[C@]2(c3cccc(O)c3)Cc3nc4ccccc4cc3C[C@H]2C1` yielded an RP-LC retention time of 572 s.

`O=C(NCCc1csc(-c2cccs2)n1)C1CCN(S(=O)(=O)c2ccccc2F)CC1` returned an RP-LC retention time of 872 s.

For the compound `COc1ccc(-c2nc(NCCC(C)C)c3ccccc3n2)cc1`, the RP-LC retention time was determined as 844 s.

Regarding `Cc1ccc(NC(=O)Cn2c(=O)n(-c3ccc(F)cc3)c(=O)c3c2cc(C)n3C)cc1Cl`, the RP-LC retention time stood at 946 s.

`Cc1ccc(NC(=O)NC2CCN(c3ccc(F)cc3)C2=O)c(C)c1` (configuration not stated) returned an RP-LC retention time of 778 s.

`CC(C)Cc1ccc(S(=O)(=O)NC2CCCN(c3ccc(=O)n(CC4CC4)n3)C2)cc1` (configuration not stated): the RP-LC retention time was found to be 1050 s.

Compound `CCc1csc(-c2ccc(N3CCN(C(=O)Cc4ccc(F)cc4)CC3)nc2)n1` yielded an RP-LC retention time of 925 s.

The compound `CCN1C(=O)c2cccnc2Sc2cc(C(=O)NCC(C)C)ccc21` returned an RP-LC retention time of 748 s.

`CCc1noc(NC(C)=O)c1-c1ccc(OC)c(S(=O)(=O)NC2CCCCCCC2)c1` gave an RP-LC retention time of 939 s.

On to `COc1cc(OC)c(NC(=O)N2CCCC(C)(C(=O)NCc3ccc(F)cc3)C2)cc1Cl` (configuration not stated), for which the RP-LC retention time was determined as 916 s.

Take `CCCN(CCC)S(=O)(=O)c1cccc(-c2cn3ccc(C)cc3n2)c1`: the RP-LC retention time is 744 s.

`O=C(Cc1csc2nc(-c3ccccc3)cn12)NCc1ccc2c(c1)OCO2` returned an RP-LC retention time of 744 s.

In turn, `Cc1ccc(C2Cn3nnc(-c4nc(-c5ccc6c(c5)OCO6)no4)c3CO2)c(C)c1` (configuration not stated) yielded an RP-LC retention time of 1250 s.

`CC(C)(C)c1cc(C(C)(C)C)c2c(c1)C(O)(C(F)(F)F)C(=O)O2` (configuration not stated) had an RP-LC retention time of 1250 s.

Compound `O=C1CC(c2nc3ccccc3n2CC(O)COc2ccccc2Cl)CN1Cc1ccccc1` (configuration not stated) yielded an RP-LC retention time of 797 s.

The compound `Cc1cc(C)n(-c2ccnc(N3CCC(C(=O)NCc4ccco4)CC3)n2)n1` gave an RP-LC retention time of 742 s.

`Cc1cc(C(=O)NCc2ccc(F)cc2)n(-c2ccccc2)n1` returned an RP-LC retention time of 813 s.

As for `Cc1ccc(Cl)cc1N1CCN(C(=O)C2CC(=O)c3ccccc32)CC1` (configuration not stated), the RP-LC retention time amounted to 922 s.

Turning to `O=C(NC(c1ccccc1)c1nnc(N2CCOCC2)o1)C1CCCCC1` (configuration not stated), the RP-LC retention time is 735 s.

In turn, `Cc1cc2c(cc1S(=O)(=O)N1CCC(C(=O)NCCC3=CCCCC3)CC1)OCC(=O)N2` yielded an RP-LC retention time of 820 s.

Compound `COc1ccc(Nc2nc(N3CCN(C)CC3)nc3c2C(=O)CCC3)cc1` yielded an RP-LC retention time of 645 s.

The compound `COc1ccc(CCC(=O)N2CCN(c3nnc4ccc(C(F)(F)F)cn34)CC2)cc1` yielded an RP-LC retention time of 709 s.

`O=C(Nc1nccs1)c1ccc(Cl)c(S(=O)(=O)N2CCOCC2)c1` gave an RP-LC retention time of 729 s.

The record behind these values is the METLIN SMRT retention time set (Domingo-Almenara et al. 2019).
